Assays:
Histamine H1 receptor = Histamine H1 receptor (Homo sapiens, UniProt P35367); assay: Binding affinity towards Histamine H1 receptor of human membranes.
Histamine H3 receptor [1] = target: Histamine H3 receptor (Rattus norvegicus, UniProt Q9QYN8); assay: Binding affinity towards Histamine H3 receptor of rat cortical membranes.
Histamine H2 receptor = Histamine H2 receptor (Homo sapiens, UniProt P25021); assay: Binding affinity towards Histamine H2 receptor from human membranes
[2] = target: Histamine H3 receptor (Rattus norvegicus) (UniProt Q9QYN8); assay: In vitro histamine H3 receptor antagonist activity was determined by K+-evoked depolarization- induced release of [3H]histamine from rat synaptosomes; format: functional, subcellular; settings: Brain
Chain of Histamine H3 receptor (Rattus norvegicus) (Q9QYN8 whole entry): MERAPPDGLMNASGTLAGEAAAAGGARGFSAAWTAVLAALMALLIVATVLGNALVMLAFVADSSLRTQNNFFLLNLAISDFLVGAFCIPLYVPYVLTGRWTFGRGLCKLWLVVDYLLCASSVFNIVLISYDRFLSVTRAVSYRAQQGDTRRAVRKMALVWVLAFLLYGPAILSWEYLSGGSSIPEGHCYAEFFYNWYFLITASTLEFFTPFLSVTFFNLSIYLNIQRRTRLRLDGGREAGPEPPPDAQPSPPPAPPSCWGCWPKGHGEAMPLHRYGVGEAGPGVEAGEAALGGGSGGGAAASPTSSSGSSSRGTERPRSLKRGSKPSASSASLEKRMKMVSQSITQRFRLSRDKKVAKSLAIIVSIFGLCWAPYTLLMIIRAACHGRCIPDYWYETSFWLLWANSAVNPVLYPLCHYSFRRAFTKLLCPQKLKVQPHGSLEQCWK

[3] = Oral bioavailability in rat (dose 5 mg/kg p.o.); format: ADME, organism-based; settings: in vivo
Histamine H3 receptor [4] = target: Histamine H3 receptor (Cavia porcellus, UniProt Q9JI35); assay: Tested in vitro for histamine H3 receptor mediate inhibition of neurogenic contractions in guinea pig isolated ileum assay; format: functional, tissue-based; settings: read-out: pA2 (converted)
Chain of Histamine H3 receptor (Cavia porcellus, UniProt Q9JI35) (Q9JI35 whole entry): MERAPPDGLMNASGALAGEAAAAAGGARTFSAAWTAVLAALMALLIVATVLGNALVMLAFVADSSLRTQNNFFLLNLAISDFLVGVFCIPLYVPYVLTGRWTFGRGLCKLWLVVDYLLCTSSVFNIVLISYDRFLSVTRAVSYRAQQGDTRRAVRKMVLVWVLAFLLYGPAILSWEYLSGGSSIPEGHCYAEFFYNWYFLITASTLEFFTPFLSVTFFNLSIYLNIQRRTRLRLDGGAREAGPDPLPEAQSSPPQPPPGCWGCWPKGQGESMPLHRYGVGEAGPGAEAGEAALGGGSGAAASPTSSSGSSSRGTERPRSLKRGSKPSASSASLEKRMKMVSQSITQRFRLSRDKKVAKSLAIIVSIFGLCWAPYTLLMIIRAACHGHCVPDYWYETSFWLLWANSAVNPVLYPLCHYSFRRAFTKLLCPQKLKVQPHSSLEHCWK

Chain of Histamine H2 receptor (P25021 whole entry): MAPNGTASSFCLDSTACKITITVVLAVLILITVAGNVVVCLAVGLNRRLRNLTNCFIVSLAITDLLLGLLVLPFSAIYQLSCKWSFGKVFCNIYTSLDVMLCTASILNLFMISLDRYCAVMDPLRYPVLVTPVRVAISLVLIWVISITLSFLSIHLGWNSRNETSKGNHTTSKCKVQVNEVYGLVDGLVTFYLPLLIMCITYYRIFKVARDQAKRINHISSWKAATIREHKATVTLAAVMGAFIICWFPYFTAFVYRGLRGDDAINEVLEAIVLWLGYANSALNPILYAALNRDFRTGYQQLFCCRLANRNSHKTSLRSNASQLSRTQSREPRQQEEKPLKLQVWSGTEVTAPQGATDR
Chain of Histamine H1 receptor (P35367 whole entry): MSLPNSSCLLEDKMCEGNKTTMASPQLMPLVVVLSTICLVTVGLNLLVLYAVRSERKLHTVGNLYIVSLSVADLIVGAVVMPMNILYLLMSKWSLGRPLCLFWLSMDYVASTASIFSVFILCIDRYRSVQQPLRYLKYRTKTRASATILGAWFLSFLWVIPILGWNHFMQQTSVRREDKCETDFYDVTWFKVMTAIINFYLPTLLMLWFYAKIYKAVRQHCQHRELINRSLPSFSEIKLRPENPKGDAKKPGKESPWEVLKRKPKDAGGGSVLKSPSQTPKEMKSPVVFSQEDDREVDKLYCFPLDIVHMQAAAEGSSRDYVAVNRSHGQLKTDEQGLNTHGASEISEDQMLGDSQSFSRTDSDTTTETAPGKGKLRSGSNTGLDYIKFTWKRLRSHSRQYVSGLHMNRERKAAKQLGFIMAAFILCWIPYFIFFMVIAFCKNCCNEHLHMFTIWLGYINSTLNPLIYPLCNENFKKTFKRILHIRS
Chain of Histamine H3 receptor (Rattus norvegicus, UniProt Q9QYN8) (Q9QYN8 whole entry): as the sequence (Q9QYN8 whole entry) above

SMILES | Ki (Histamine H1 receptor) [µM] | Ki (Histamine H3 receptor [1]) [µM] | Ki (Histamine H2 receptor) [µM] | pKb [2] | bioavailability [3] [%] | Kb (Histamine H3 receptor [4]) [µM]
N[C@H](Cc1nccs1)C(=O)N1CCN(CCCOc2ccc(C(=O)C3CC3)cc2)CC1 | 100 | 0.00575 | 97.7 | – | – | –
O=C(c1ccc(OCCCN2CCN(C(=O)C[C@H]3CCCN3)CC2)cc1)C1CC1 | 95.5 | – | 89.1 | – | – | –
CC(C)(C)[C@@H](N)C(=O)N1CCN(CCCOc2ccc(C(=O)C3CC3)cc2)CC1 | 21.9 | 0.0525 | 19.1 | – | – | –
CCCCCC(=O)c1ccc(OCCCN2CCN(C(=O)[C@@H](Cc3ccncc3)NC(=O)OC(C)(C)C)CC2)cc1 | 17 | 0.0234 | 12 | – | – | –
N[C@H](CC1CCCCC1)C(=O)N1CCN(CCCOc2ccc(C(=O)C3CC3)cc2)CC1 | 14.5 | 0.162 | 20.4 | – | – | –
CNCC(=O)N1CCN(CCCOc2ccc(C(=O)C3CC3)cc2)CC1 | 100 | 0.00229 | 79.4 | – | – | –
CCCCCC(=O)c1ccc(OCCCN2CCN(C(=O)[C@H](N)CC(C)C)CC2)cc1 | 14.5 | 0.0617 | 14.1 | – | – | –
C[C@@H](N)C(=O)N1CCN(CCCOc2ccc(C(=O)C3CC3)cc2)CC1 | 69.2 | 0.00126 | 70.8 | 8.75 | 83 | 0.105
CC(C)(C)OC(=O)N1CCC[C@@H]1C(=O)N1CCN(CCCOc2ccc(C(=O)C3CC3)cc2)CC1 | 46.8 | 0.12 | 50.1 | – | – | –
CN[C@H](Cc1ccccc1)C(=O)N1CCN(CCCOc2ccc(C(=O)C3CC3)cc2)CC1 | 13.5 | 0.0437 | 17.8 | – | – | –
CCCCCC(=O)c1ccc(OCCCN2CCN(C(=O)[C@@H](N)C(C)C)CC2)cc1 | 19.1 | 0.0794 | 38 | – | – | –
CCCCCC(=O)c1ccc(OCCCN2CCN(C(=O)[C@H](N)CO)CC2)cc1 | 46.8 | 0.00708 | 34.7 | – | – | –
O=C(c1ccc(OCCCN2CCN(C(=O)[C@H]3CCCN3)CC2)cc1)C1CC1 | 37.2 | 0.0302 | 53.7 | – | – | –
CCCCCC(=O)c1ccc(OCCCN2CCN(C(=O)[C@@H](C)N)CC2)cc1 | 35.5 | 0.00191 | 40.7 | – | – | –
CCCCCC(=O)c1ccc(OCCCN2CCN(C(=O)[C@@H](CO)NC(=O)OC(C)(C)C)CC2)cc1 | 17 | 0.0024 | 22.9 | – | – | –
CCCCCC(=O)c1ccc(OCCCN2CCN(C(=O)OCC)CC2)cc1 | – | – | – | – | 0 | –
N[C@H](Cc1c[nH]cn1)C(=O)N1CCN(CCCOc2ccc(C(=O)C3CC3)cc2)CC1 | 95.5 | 0.00457 | 89.1 | – | – | –
CCCCCC(=O)c1ccc(OCCCN2CCN(C(=O)[C@H](N)C(C)C)CC2)cc1 | 16.6 | 0.017 | 31.6 | – | – | –
CN[C@@H](C(=O)N1CCN(CCCOc2ccc(C(=O)C3CC3)cc2)CC1)C(C)C | 34.7 | 0.0759 | 49 | – | – | –
O=C1C[C@H](N2CCN(CCCOc3ccc(C(=O)C4CC4)cc3)CC2)N1 | 21.9 | 0.0427 | 26.9 | – | – | –
CCC[C@@H](N)C(=O)N1CCN(CCCOc2ccc(C(=O)C3CC3)cc2)CC1 | 46.8 | 0.00398 | 60.3 | – | – | –
NCCC(=O)N1CCN(CCCOc2ccc(C(=O)C3CC3)cc2)CC1 | 28.2 | 0.000501 | 100 | – | 46 | –
C[C@H](N)C(=O)N1CCN(CCCOc2ccc(C(=O)C3CC3)cc2)CC1 | 53.7 | 0.0204 | 41.7 | – | – | –
CC(C)N[C@H](C)C(=O)N1CCN(CCCOc2ccc(C(=O)C3CC3)cc2)CC1 | 46.8 | 0.00871 | 50.1 | – | – | –
O=C(c1ccc(OCCCN2CCN(C(=O)[C@H]3CCN3)CC2)cc1)C1CC1 | 12.6 | 0.00132 | 14.1 | – | – | –
CC(C)(C)OC[C@@H](N)C(=O)N1CCN(CCCOc2ccc(C(=O)C3CC3)cc2)CC1 | 16.2 | 0.00851 | 45.7 | – | – | –
N#CC[C@@H](N)C(=O)N1CCN(CCCOc2ccc(C(=O)C3CC3)cc2)CC1 | 45.7 | 0.0288 | 72.4 | – | – | –
CC[C@@H](N)C(=O)N1CCN(CCCOc2ccc(C(=O)C3CC3)cc2)CC1 (stereo in doubt; 43) | 70.8 | 0.00158 | 100 | – | – | –

More lines, in order of falling Ki (Histamine H1 receptor), values ahead:

Ki (Histamine H1 receptor) [µM] | Ki (Histamine H3 receptor [1]) [µM] | Ki (Histamine H2 receptor) [µM] | pKb [2] | bioavailability [3] [%] | Kb (Histamine H3 receptor [4]) [µM] | SMILES
12 | 0.132 | 20.4 | – | – | – | N[C@H](Cc1ccc(-c2ccccc2)cc1)C(=O)N1CCN(CCCOc2ccc(C(=O)C3CC3)cc2)CC1
10.7 | 0.0977 | 12.6 | – | – | – | CCCCCC(=O)c1ccc(OCCCN2CCN(C(=O)[C@@H](NC(=O)OC(C)(C)C)C(C)C)CC2)cc1
10.7 | 0.0263 | 19.1 | – | – | – | N[C@@H](C(=O)N1CCN(CCCOc2ccc(C(=O)C3CC3)cc2)CC1)C1Cc2ccccc2C1
10.2 | – | – | – | – | – | CC(C)(C)C[C@@H](N)C(=O)N1CCN(CCCOc2ccc(C(=O)C3CC3)cc2)CC1
10 | 0.00437 | 10 | – | – | – | O=C1C[C@@H](N2CCN(CCCOc3ccc(C(=O)C4CC4)cc3)CC2)N1
10 | 0.00457 | 10 | – | – | – | N[C@H](CCc1ccccc1)C(=O)N1CCN(CCCOc2ccc(C(=O)C3CC3)cc2)CC1
10 | 0.0129 | 12.3 | – | – | – | O=C(c1ccc(OCCCN2CCN(C(=O)[C@@H]3CCN3)CC2)cc1)C1CC1
9.77 | 0.0229 | 46.8 | – | – | – | N[C@H](Cc1ccsc1)C(=O)N1CCN(CCCOc2ccc(C(=O)C3CC3)cc2)CC1
9.77 | 0.17 | 16.6 | – | – | – | CCCCCC(=O)c1ccc(OCCCN2CCN(C(=O)[C@@H](N)CC(C)C)CC2)cc1
9.77 | 0.0302 | 33.1 | – | – | – | N[C@H](Cc1ccc(O)cc1)C(=O)N1CCN(CCCOc2ccc(C(=O)C3CC3)cc2)CC1
9.33 | 0.0537 | 14.8 | – | – | – | CCCCCC(=O)c1ccc(OCCCN2CCN(C(=O)[C@H](Cc3ccncc3)NC(=O)OC(C)(C)C)CC2)cc1
9.33 | 0.0295 | 39.8 | – | – | – | N[C@H](Cc1ccc(F)cc1)C(=O)N1CCN(CCCOc2ccc(C(=O)C3CC3)cc2)CC1
8.13 | 0.112 | 3.47 | – | – | – | CCCCCC(=O)c1ccc(OCCCN2CCN(C(=O)[C@H](CC(C)C)NC(=O)OC(C)(C)C)CC2)cc1
8.13 | – | 83.2 | – | – | – | C[C@@H](NC(=O)OC(C)(C)C)C(=O)N1CCN(CCCOc2ccc(C(=O)C3CC3)cc2)CC1
6.76 | 0.00123 | 10.7 | – | – | – | CCCCCC(=O)c1ccc(OCCCN2CCN(C(=O)[C@@H](C)NC(=O)OC(C)(C)C)CC2)cc1
5.5 | 0.00398 | 10 | – | – | – | CC(C)(C)OC(=O)N[C@H](Cc1ccccc1)C(=O)N1CCN(CCCOc2ccc(C(=O)C3CC3)cc2)CC1
4.68 | 0.0145 | 4.47 | – | – | – | CCCCCC(=O)c1ccc(OCCCN2CCN(C(=O)[C@@H](CC(C)C)NC(=O)OC(C)(C)C)CC2)cc1
4.68 | 0.00251 | 10.7 | – | – | – | CC[C@H](N)C(=O)N1CCN(CCCOc2ccc(C(=O)C3CC3)cc2)CC1
4.57 | 0.0275 | 24.5 | – | – | – | N[C@@H](C(=O)N1CCN(CCCOc2ccc(C(=O)C3CC3)cc2)CC1)c1ccccc1
4.37 | 0.288 | 15.1 | – | – | – | N[C@H](Cc1cc2ccccc2s1)C(=O)N1CCN(CCCOc2ccc(C(=O)C3CC3)cc2)CC1
3.31 | 0.00912 | 37.2 | – | – | – | CCCCCC(=O)c1ccc(OCCCN2CCN(C(=O)[C@H](N)Cc3ccncc3)CC2)cc1
3.31 | 0.0148 | 13.5 | – | – | – | CCCCCC(=O)c1ccc(OCCCN2CCN(C(=O)[C@H](NC(=O)OC(C)(C)C)C(C)C)CC2)cc1
2.29 | 0.0102 | 34.7 | – | – | – | CCCCCC(=O)c1ccc(OCCCN2CCN(C(=O)[C@@H](N)Cc3ccncc3)CC2)cc1
2.09 | 0.00195 | 11 | – | – | – | CC[C@@H](N)C(=O)N1CCN(CCCOc2ccc(C(=O)C3CC3)cc2)CC1 (stereo in doubt; 57)
2 | 0.214 | 20.9 | – | – | – | N[C@H](Cc1cccc2ccccc12)C(=O)N1CCN(CCCOc2ccc(C(=O)C3CC3)cc2)CC1
1.74 | 0.00891 | 10.7 | – | – | – | C[C@H](CN)C(=O)N1CCN(CCCOc2ccc(C(=O)C3CC3)cc2)CC1
1.51 | 0.00646 | 10.2 | – | – | – | C[C@@H](CN)C(=O)N1CCN(CCCOc2ccc(C(=O)C3CC3)cc2)CC1

Source: ChEMBL document CHEMBL1135199, “Structure-activity relationships of non-imidazole H(3) receptor ligands. Part 2: binding preference for D-amino acids motifs” (Bioorg Med Chem Lett, 2002)
